Experimental data from patent US20120095062A1, “TRICYCLIC COMPOUNDS, COMPOSITIONS, AND METHODS” (Pfizer Inc., priority 2007, published 2012).
Like-named read-outs stand apart in the source and are kept apart here.

Experiments:
[1] = Plasma exposure (AUC) in the mouse; format: in vivo
[2] = system: LPS-induced serum TNFα; assay: LPS-induced serum TNFα suppression, 28-day repeat dose mouse model; format: in vivo; details: 672 h, mice, oral gavage 28 days
[3] = system: Mouse Collagen-induced arthritis; assay: Therapeutic mouse collagen-induced arthritis (mCIA) model; format: in vivo; details: mice, dosing day 34 through day 49, read-out: Therapeutic mCIA (ED50 dose)
Description: Mouse Collagen-induced arthritis is a commonly used chronic, preclinical model of rheumatoid arthritis in which joint swelling and bone destruction occur following immunization with type II collagen. Reduction of disease incidence and severity has been shown previously to be predictive of disease-modification and signs and symptoms mitigation, respectively, in a clinical setting.
In the therapeutic mCIA model, induction of disease incidence and severity was synchronized via LPS stimulation. Male […] mice were immunized with 100 ug of bovine type II collagen (bCII) on day 0. All mice received an intraperitoneal injection of 20 μg of LPS on day 28 and disease was allowed to develop through day 34. At day 34, all mice had disease (incidence=100%) with an average severity score of seven. Dosing of compounds was initiated in the therapeutic mode on day 34 and continued through day 49. Different treatments were compared by measuring the decrease in incidence (i.e., resolution of disease) and the decrease in severity of paw swelling over time.

[4] = system: Cortical bone formation rate; assay: Cortical bone histomorphometry, bone formation rate (BFR); format: in vivo, mice; details: 28-day repeat dose model; the 11th table
Experimental: Sigma-Aldrich, St. […] Calcein incorporates into the bone mineral and allows measurement of bone formation rate. Calcein was dissolved in 2% sodium bicarbonate. During the tissue harvest, the left tibiae were excised and cleaned for cortical histomorphometry measurements. After all skin and muscle were removed, tibiae were placed in 70% ethanol (4° C.) in the dark for a minimum of 24 hours. Ground transverse sections were used for histomorphometric analysis of cortical bone. Bones were sectioned using a low-speed saw (lsomet, Buehler, Lake Bluff, Ill.) equipped with a diamond wafer blade. The end of each tibia was removed proximal to tibia-fibula synostosis and a […] cross-section was cut. Using a roughened glass plate and a cork, sections were ground to […] until transparent and all labels were distinguishable under a fluorescent microscope. […] Sigma-Aldrich, St. Louis, Mo.). Sections were mounted using Eukitt Quick Mounting Medium (#03989, Sigma-Aldrich, St. Louis, Mo.) after which coverslip was applied. […] Bone formation rate was calculated by the following equation: (Inter-label width/Label interval)*(Labeled perimeter/Bone perimeter). At least five samples were measured from each treatment group in each study.

[5] = system: IL-6, Human A549 lung epithelial cells; assay: IL-6 inhibition in IL-1β-stimulated A549 cells; format: cell-based
Experimental: Human A549 lung epithelial cells (American Type Culture Collection, Rockville, Md.) were cultured in Kaighn's F-12K medium with penicillin-streptomycin (10 U/mL) and 10% heat-inactivated fetal bovine serum (all from Invitrogen, Grand Island, N.Y.). A549 cells were plated at a density of 30,000 cells/well in 96-well plates and incubated overnight at 37° C. and with 5% CO2. The cells were serum-starved by replacing the growth medium with serum-free Kaighn's F-12K medium with penicillin-streptomycin (10 U/mL) and, again, incubating overnight at 37° C. and with 5% CO2. On the third day, the medium was replaced with fresh serum-free medium and the cells were incubated with or without compound (vehicle was DMSO at 0.1% maximum concentration) for approximately 1 hour and then stimulated with 1 ng/mL recombinant human IL-1β (R&D Systems, Minneapolis, Minn.) for 20 hours at 37° C. and with 5% CO2. Cell supernatants were collected for determination of IL-6 levels using MSD (Meso Scale Discovery, Gaithersburg, Md.) 96-well Single Spot plates as per the manufacturer's instructions. Plates were read with an MSD Sector Imager 6000. […] Vehicle was used to define the 0% inhibition control. Percent inhibition for each compound concentration, relative to these controls, was calculated using Excel (Microsoft, Redmond, Wash.). IC50 values were generated using GraFit 5.0 data analysis software (Erithacus Software Ltd., Surrey, UK).

[6] = system: Serum osteocalcin; assay: Serum osteocalcin suppression, 28-day repeat dose mouse model; format: in vivo, mice
[7] = system: TNFα, U937 cells; assay: TNFα inhibition in LPS-stimulated differentiated U937 cells; format: cell-based; details: Homo sapiens
Experimental: Cells were differentiated to a monocyte/macrophage phenotype with phorbol 12-myristate 13-acetate (Sigma-Aldrich, St. Louis, Mo.), 20 ng/mL, overnight. […] Following recovery, the cells were scraped, counted, and plated in accordance to the experimental design prior to stimulation with LPS, as described below. U937 cells were differentiated and plated at a density of 200,000 cells/well in 96-well plates. […] Louis, Mo.) for four hours at 37° C. and with 5% CO2. Cell supernatants were collected for determination of TNFα levels using an in-house sandwich-type ELISA. Mouse anti-human TNFα monoclonal antibody (clone 28401.111) and biotinylated goat anti-human TNFα (R&D Systems, Minneapolis, Minn.) were used as the capture and detection antibodies, respectively. Streptavidin-horseradish peroxidase (HRP) (R&D Systems, Minneapolis, Minn.) and K-Blue Substrate/Red Stop (Neogen, Lexington, Ky.) were used as the detection system. Absorbance was measured at 650 nm. TNFα concentrations were interpolated from a human TNFα recombinant protein (R&D Systems, Minneapolis, Minn.) standard curve using a four parameter logistics model by Magellan 4.11 data analysis software (Tecan, Durham, N.C.). […] Vehicle was used to define the 0% inhibition control. Percent inhibition for each concentration of compound, relative to these controls, was calculated using Excel (Microsoft, Redmond, Wash.).

| Compound | AUC(0-4 hr) as share of the AUC(0-24 hr) values [1] | ED50 [2] [mg/kg] | ED50 [3] [mg/kg] | Cortical bone formation rate (BFR) EAUC50 [4] [ng·h/mL] | IC50 ([5]; A549, 20 h, A549 cells, 1 ng/mL IL-1β, 20 hours, read-out: IL-6 IC50) [nM] | inhibition ([5]; A549, A549 cells, Prednisolone (1 μM) = 100% inhibition control) [%] | IC50 ([5]; A549, value in brackets, footnote a: additional results that were found, read-out: IL-6 IC50 (nM), additional result) [nM] | Serum osteocalcin (OC) EAUC50 ([6]; 28-day repeat dose model, the 11th table) [ng·h/mL] | ED50 ([6]; Mus musculus, 672 h, mice, oral gavage 28 days, serum osteocalcin) [mg/kg] | IC50 ([7]; U-937, 4 h, U937 cells, 100 ng/mL LPS, four hours, read-out: TNFα IC50) [nM] | IC50 ([7]; U-937, value in brackets, footnote a: additional results that were found, read-out: TNFα IC50 (nM), additional result) [nM] |
| --- | --- | --- | --- | --- | --- | --- | --- | --- | --- | --- | --- |
| Cc1ncccc1NC(=O)c1ccc2c(c1)CC[C@@H]1C[C@@](O)(C(F)(F)F)CC[C@@]21Cc1ccccc1 [Example 1, (4βS,7R,8αR)-4β-benzyl-7-hydroxy-N-(2-methylpyridin-3-yl)-7-(trifluoromethyl)-4β,5,6,7,8,8α,9,10-octahydrophenanthrene-2-carboxamide] | more than 95% |  |  |  |  |  |  |  |  |  |  |
| C[C@]12C=CC(=O)C=C1CC[C@@H]1[C@@H]2[C@@H](O)C[C@@]2(C)[C@H]1CC[C@]2(O)C(=O)CO [Prednisolone] | more than 95% | 0.9 | 1.1 | 100 | 4.2 | 102 | 4.6 | 560 | 1 | 14.9 | 15.6 |
